From PMC6214630 (Biochimica et biophysica acta. General subjects, 2018) come the findings set out here.

Molecules are shown by their SMILES.

The target in the assay is THB2 (Chlamydomonas reinhardtii, UniProt R9RZJ6). The assay can be described thus: UV-visible absorption. As to conditions: Fe(III) heme. The format is binding.

Consider `CC(=O)O` [acetate], for which the UV-visible absorption result was “this protein, like THB1 and a small number of TrHbs”. For `c1c[nH]cn1` [imidazole], for the setting “excess imidazole”, the UV-visible absorption result is “addition of excess imidazole to our preparations of THB2 nearly eliminates the discrepancies”.
